Source: publication PMC12664080, “Tetrazole-containing naphthalene bis-sulfonamide Keap1-Nrf2 interaction inhibitors with unexpected binding modes” (Redox Biology, 2025)
Values belong to the molecule of their own block, whether it stands above or below them.

Experiments:
[1] = system: NQO1; assay: NQO1 induction assay in Hepa1c1c7 cells; type: cell-based, mouse; conditions: Mus musculus, Hepa-1c1c7, 10 μM
Procedure: The method using Hepa1c1c7 cells has been described previously. Briefly, cells were seeded into 96-well plates (2 × 10^4 cells/200 μL per well) then incubated overnight at 37 °C. The cells were treated with compound (10 μM final concentration) or vehicle (final DMSO concentration 0.1 % DMSO) and incubated for a further 24 h or 48 h. The culture medium was aspirated and the cells treated with lysis buffer (50 μL per well, 0.1 % Tween 20 in 2 mM EDTA (pH 7.5)) then agitated for 15 min. Enzyme reaction mixture was added to each well (200 μL of 25 mM Tris buffer (pH 7.5) containing BSA (0.067 %), Tween20 (0.01 %), FAD (5 μM), G6P (1 mM), NADP (30 μM), G6P dehydrogenase (40 units), MTT (0.03 %), menadione (50 μM)) for 5 min then stop solution was applied (40 μL of 10 % SDS, final concentration 1.5 % SDS). Following brief agitation of the plate, the absorbance at 595 nm was measured. The background optical density was measured from wells containing tissue culture medium, lysis buffer, enzyme and stop solutions in the absence of Hepa1c1c7 cells. The change in background-corrected NQO1 activity (change in optical density) relative to the control was determined for each compound.

[2] = system: Nrf2; assay: Nrf2 luciferase reporter assay (MCF7 ARE-luciferase reporter cell line); type: cell-based; conditions: Homo sapiens; 100 μM (highest test concentration), MCF7 cells; read-out: peak fold induction of luciferase activity
Procedure: The induction of luciferase activity in the stably transfected MCF7 ARE-luciferase reporter cell line was measured using an adaptation of a published procedure. […] The cells were treated with compound or vehicle control (1 % final DMSO concentration) and incubated for a further 24 h. The culture medium was aspirated and the cells were washed with 100 μL per well PBS. The cells were lysed using 75 μL per well lysis buffer (0.2 % Triton X-100 in 25 mM Tris pH 7.5) under gentle agitation at rt for 30 min. The samples were transferred to 500 μL Eppendorf tubes and centrifuged at 10000 g for 5 min at 4 °C. 50 μL of supernatant from each sample were transferred to a new 96 well plate. 50 uL of working reagent (100 mM Tris pH 8.0, 5 mM MgCl2, 100 μM coenzyme A, 80 μM luciferin, and 5 mM ATP) were added to each well and the luciferase activity was measured.

[3] = 1D 1H NMR lineshape analysis of cis/trans rotamer exchange; conditions: DMSO; for kA→B / ΔH^‡AB / ΔHAB: lineshape; for ΔH^‡AB: Eyring; for ΔHAB: van't Hoff
Procedure: Exchange was quantified using a two-site exchange model [40] implemented in Julia, where resonances were fitted to calculate chemical shifts of the two states and the exchange rates kAB and kBA between them. […] Reported uncertainties were determined from the standard errors of the fits.
Exchange rates kAB and kBA were used to determine the relative populations pA=kBA/kAB+kBA and pB=kAB/kAB+kBA and were fitted to van't Hoff and Eyring equations (with unit transmission coefficient) to estimate the enthalpy and entropy changes and enthalpy and entropy of activation.

[4] = target: T1, Keap1 Kelch domain (Homo sapiens, UniProt Q14145); assay: Differential scanning fluorimetry (DSF) thermal shift assay; type: binding; conditions: 10 μM compound; Keap1 vehicle control Ti = 61.3 ± 0.3 °C
T1 construct: made in house
Procedure: The DSF assays were carried out according to the previously described method. Solutions of the Keap1 Kelch domain protein (5 μM final concentration) and the small molecule inhibitor (10 μM final concentration) were prepared in DPBS at pH 7.4 (10 % final DMSO concentration, 20 μL final volume) in an Eppendorf tube. The solution was centrifuged briefly (1500 rpm, 60 s) to remove any particulates and mix the samples, followed by a 30 min incubation at RT. The samples were loaded into Tycho NT.6 capillaries (Nanotemper) in triplicate and positioned in the […] instrument. […] The fluorescence ratio vs temperature was plotted and the inflection temperature (Ti) of the profile was recorded. Changes in inflection (ΔTi) for the inhibitors were calculated by subtracting the mean Ti of the Keap1 sample plus vehicle from the mean Keap1 plus binder value (n = 3).

[5] = target: T1, Keap1 Kelch domain; assay: Fluorescence polarisation (FP) competition assay; type: binding; conditions: for inhibition at 10 µM: read-out: FP percentage inhibition at 10 μM concentration of inhibitor; for IC50: 200 nM Keap1 Kelch domain, 1 nM FITC-β-DEETGEF-OH
Procedure: The FP assays were carried out according to previously described methods [[23],[31], [32], [33], [34]]. […] Following incubation under slow agitation (30 min at rt in the absence of light), the plates were transferred to a PHERAstar microplate reader and the FP was recorded. All measurements were recorded in triplicate. The data were normalised to the control and then fitted to a standard four-parameter logistic function using the Origin Pro software.

[6] = target: T1, Keap1 Kelch domain; assay: Isothermal titration calorimetry (ITC); type: binding; conditions: 25 °C; read-out: ITC Kd
Procedure: The measurements were performed as described previously. The small molecule inhibitor at 500 μM was titrated over 30 injections against 50 μM protein in buffer containing 25 mM HEPES (pH 7.4), 200 mM NaCl and 5 % DMSO. ITC experiments were performed using a MicroCal PEAQ-ITC instrument (Malvern Instruments, UK) at 25 °C with a stirring speed of 750 rpm. The first injection volume was of 0.3 μL followed by 29 injections of 1.3 μL and a gap of 120 s between each injection. Data analyses were performed as previously described. Each small molecule ITC measurement was performed in duplicate and resultant values obtained were averaged after independent analysis.

[7] = target: Keap1 (Homo sapiens, UniProt Q14145); assay: Microscale thermophoresis (MST); conditions: 10 nM Keap1
Keap1, sequence (Q14145 322-609): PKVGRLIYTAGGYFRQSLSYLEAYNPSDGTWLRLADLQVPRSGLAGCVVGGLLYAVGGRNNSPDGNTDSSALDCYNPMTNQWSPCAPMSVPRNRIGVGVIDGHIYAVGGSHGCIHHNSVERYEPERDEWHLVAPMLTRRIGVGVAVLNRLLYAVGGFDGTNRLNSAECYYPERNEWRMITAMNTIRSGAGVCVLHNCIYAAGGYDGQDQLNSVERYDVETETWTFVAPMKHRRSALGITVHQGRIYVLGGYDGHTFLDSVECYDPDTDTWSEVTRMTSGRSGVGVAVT
Procedure: Keap1 was labelled using the Protein Labelling Kit RED-NHS 2nd Generation (NanoTemper, München, Germany). Keap1 was diluted to 2 μM in RED-NHS Labelling Buffer. 10 μg of RED-NHS 2nd Generation labelling dye was freshly dissolved in 25 μL of DMSO to yield a concentration of 600 μM, then further diluted in RED-NHS Labelling Buffer to 300 μM. A volume of 20 μL of the 300 μM labelling dye was thoroughly mixed with 180 μL of 2 μM Keap1 and incubated at rt in a dark environment for 3 h. […] The sample was transferred to the centre of the resin bed in the B-column. 550 μL of Keap1 MST buffer was pipetted into the B-column and allowed to enter completely, followed by elution of the sample with 450 μL of Keap1 MST buffer and the flow-through was collected into a 1.5 mL Eppendorf tube. The collected sample was centrifuged at 15,000×g for 10 min at 4 °C to remove aggregates. Protein concentration in the collected sample was determined using the NanoDrop spectrophotometer. The sample was then tested in MST pre-test to evaluate the labelling quality.
Labelled Keap1 was diluted to 20 nM in Keap1 MST buffer prior to the reaction setup. […] An equal volume of 20 nM Keap1 was thoroughly mixed with each diluted sample and incubated for 30 min at rt. […] An equal volume of 2 nM Keap1 was mixed with each diluted sample and incubated at rt for 30 min. Incubated samples were loaded into Monolith NT.115 standard capillaries and measured using the Monolith NT.115^Pico instrument in triplicate. Parameters and measurements were set and controlled by the MO.Control software and collected datasets were analysed using the MO.Affinity Analysis software.

T1 sequence (Q14145 322-609): as above

DSF ΔTi [4]: 7.6 ± 0.1 °C
Compound: COc1ccc(S(=O)(=O)N(CC(N)=O)c2ccc(N(CC(N)=O)S(=O)(=O)c3ccc(OC)cc3)c3ccccc23)cc1 [Compound 4, 2,2'-(Naphthalene-1,4-diylbis(((4-methoxyphenyl)sulfonyl)azanediyl))diacetamide]

inhibition at 10 µM [5]: 0%
Compound: CCOC(=O)CN(c1ccc(N(CC(=O)OCC)S(=O)(=O)c2ccc(OC)cc2)c2ccccc12)S(=O)(=O)c1ccc(OC)cc1 [Compound 11, Diethyl 2,2'-(naphthalene-1,4-diylbis(((4-methoxyphenyl)sulfonyl)azanediyl))diacetate]

inhibition at 10 µM [5]: 0%
Compound: COc1ccc(S(=O)(=O)N(CC#N)c2ccc(N(CC#N)S(=O)(=O)c3ccc(OC)cc3)c3ccccc23)cc1 [Compound 12, N,N'-(Naphthalene-1,4-diyl)bis(N-(cyanomethyl)-4-methoxybenzenesulfonamide)]
fold induction at 10 µM [1]: 0.89 ± 0.24

binding activity in FP assay [5]: inactive
inhibition at 10 µM [5]: 0%
Compound: CCOC(=O)CN(c1ccc(N(CC(=O)O)S(=O)(=O)c2ccc(OC)cc2)c2ccccc12)S(=O)(=O)c1ccc(OC)cc1 [Compound 22, 2-(N-(4-(N-(2-Ethoxy-2-oxoethyl)-4-methoxyphenylsulfonamido)naphthalen-1-yl)-4-methoxyphenylsulfonamido)acetic acid]
fold induction at 10 µM [1]: 0.77 ± 0.18

IC50 [5]: 143 ± 18 nM
DSF ΔTi [4]: 10.0 ± 0.2 °C
Compound: COc1ccc(S(=O)(=O)N(CC(N)=O)c2ccc(N(CC(=O)O)S(=O)(=O)c3ccc(OC)cc3)c3ccccc23)cc1 [Compound 23, 2-(N-(4-(N-(2-Amino-2-oxoethyl)-4-methoxyphenylsulfonamido)naphthalen-1-yl)-4-methoxyphenylsulfonamido)acetic acid]
fold induction at 10 µM [1]: 1.9 ± 0.05

Second part, the molecule before the results:

Compound: COc1ccc(S(=O)(=O)N(CC(=O)O)c2ccc(N(CC(=O)O)S(=O)(=O)c3ccc(OC)cc3)c3ccccc23)cc1 [Compound 2, 2,2'-(Naphthalene-1,4-diylbis(((4-methoxyphenyl)sulfonyl)azanediyl))diacetic acid, reference compound]
fold induction at 10 µM [1]: 2.34 ± 0.35
fold induction at 100 µM [2]: 10.9
Occupancy of the more shielded state (A) ([3]; 300 K): 0.426 ±0.001
kA→B ([3]; 300 K): 3.175 ± 0.005 s⁻¹
Occupancy of the more shielded state (A) ([3]; 310 K): 0.436 ±0.001
kA→B ([3]; 310 K): 8.456 ± 0.024 s⁻¹
Occupancy of the more shielded state (A) ([3]; 320 K): 0.443 ±0.001
kA→B ([3]; 320 K): 18.949 ± 0.04 s⁻¹
ΔH^‡AB [3]: 15.8 ± 0.598 kcal/mol
ΔHAB [3]: -0.636 ± 0.0598 kcal/mol

Compound: COc1ccc(S(=O)(=O)N(Cc2nnn[nH]2)c2ccc(N(Cc3nnn[nH]3)S(=O)(=O)c3ccc(OC)cc3)c3ccccc23)cc1 [Compound 13, N,N'-(Naphthalene-1,4-diyl)bis(N-((1H-tetrazol-5-yl)methyl)-4-methoxybenzenesulfonamide)]
IC50 [5]: 76 ± 3 nM
DSF ΔTi [4]: 20.4 ± 0.1 °C
fold induction at 10 µM [1]: 1.94 ± 0.22
Kd [6]: 75.6 ± 33.9 nM
Kd [7]: 17.1 ± 2.6 nM
Occupancy of the more shielded state (A) ([3]; 300 K): 0.542 ±0.003
kA→B ([3]; 300 K): 1.063 ± 0.008 s⁻¹
Occupancy of the more shielded state (A) ([3]; 310 K): 0.548 ±0.001
kA→B ([3]; 310 K): 1.459 ± 0.006 s⁻¹
Occupancy of the more shielded state (A) ([3]; 320 K): 0.552 ±0.001
kA→B ([3]; 320 K): 2.927 ± 0.010 s⁻¹
ΔH^‡AB [3]: 10.4 ± 2.29 kcal/mol
ΔHAB [3]: -0.394 ± 0.0406 kcal/mol

Compound: COc1ccc(S(=O)(=O)N(Cc2nnc(C)o2)c2ccc(N(Cc3nnc(C)o3)S(=O)(=O)c3ccc(OC)cc3)c3ccccc23)cc1 [Compound 17, N,N'-(Naphthalene-1,4-diyl)bis(4-methoxy-N-((5-methyl-1,3,4-oxadiazol-2-yl)methyl)benzenesulfonamide)]
binding activity in FP assay [5]: not tolerated
inhibition at 10 µM [5]: 0%
DSF ΔTi [4]: 0.6 ± 0.1 °C
fold induction at 10 µM [1]: 1.25 ± 0.18
